Series [1] is described as follows: Antiinflammatory activity in mouse BV2 cells assessed as inhibition of LPS-stimulated nitric oxide production after 24 hrs by Griess assay. The note with it: BV-2, 24 h. In kind it is functional, cell-based.
The nature of series [2]: Cytotoxicity against mouse BV2 cells assessed as effect on cell viability after 24 hrs by MTT assay. In kind it is cell-based. The conditions noted are these: bv-2, 24 h.
A short description of series [3]: Antiinflammatory activity in mouse BV2 cells assessed as inhibition of LPS-stimulated nitric oxide production at 40 uM after 24 hrs by Griess assay relative to control. In kind it is functional. The note with it: BV-2, 24 h.
Series [4] is described as follows: Cytotoxicity against mouse BV2 cells assessed as cell viability at 40 uM after 24 hrs by MTT assay relative to control. The conditions noted are these: read-out: Activity. In kind it is cell-based, BV-2.

From ChEMBL document CHEMBL3632482, “Nitrogen Oxide Inhibitory Trimeric and Dimeric Carbazole Alkaloids from Murraya tetramera” (J Nat Prod, 2015) come the findings set out here.

Bounds are passed on as bounds.

Turning to `COn1c2ccccc2c2cc(COCc3ccc4c(c3)c3cc(Cc5ccc6c(c5)c5ccccc5n6OC)ccc3n4OC)ccc21`, in series [1], the IC50 came to 27.2 µM. Further, the Activity entry in series [2] is given as “Non-toxic”. Consider `COn1c2ccccc2c2cc(COCc3ccc4c(c3)c3ccccc3n4Cc3ccc4c(c3)c3ccccc3n4OC)ccc21`, for which the inhibition at 40 µM in series [3] is less than 20%. Moreover, the Activity result in series [2] is “Non-toxic”. Turning to `COc1cc(Cc2c(O)c(C)cc3c2[nH]c2ccccc23)cc2c1[nH]c1ccccc12`, the viability at 24 h, 40 µM in series [4] was less than 80%.

Turning to `COc1cc(Cc2c(C)cc3c([nH]c4ccccc43)c2OC)cc2c1[nH]c1ccccc12`, the IC50 in series [1] was 11.4 µM. For the same compound, the Activity entry in series [2] is on record as “Non-toxic”.

`COc1cc(C)c(Cc2ccc3[nH]c4ccccc4c3c2)c2c1[nH]c1ccccc12`: the IC50 in series [1] was found to be 26.7 µM. The Activity entry in series [2] is listed as “Non-toxic”. For `COc1cc(Cc2ccc3[nH]c4c(OC)c(O)c(C)cc4c3c2)cc2c1[nH]c1ccccc12`, the viability at 24 h, 40 µM in series [4] is less than 80%. For `COc1cc(Cn2c3ccccc3c3cc(C)c(O)c(OC)c32)cc2c1[nH]c1ccccc12`, the viability at 24 h, 40 µM in series [4] is less than 80%. For the compound `COc1c(O)c(C)cc2c3ccccc3n(Cc3ccc4[nH]c5ccccc5c4c3)c12`, the viability at 24 h, 40 µM in series [4] is less than 80%. In the case of `COc1cc(Cn2c3ccccc3c3cc(C)c(O)cc32)cc2c1[nH]c1ccccc12`, the viability at 24 h, 40 µM in series [4] is less than 80%. As to `COc1cc(Cn2c3ccccc3c3cc(C=O)ccc32)cc2c1[nH]c1ccccc12`, the IC50 in series [1] came out at 17.9 µM. Besides, the Activity result in series [2] was “Non-toxic”.

Regarding `COc1ccc2c([nH]c3c(-c4c(O)c(C)cc5c4[nH]c4ccccc45)c(O)c(C)cc32)c1C=O`, the viability at 24 h, 40 µM in series [4] was less than 80%. `COc1ccc2c([nH]c3c(-c4c(O)c(C)cc5c4[nH]c4c(C=O)c(OC)ccc45)c(O)c(C)cc32)c1C=O`: the viability at 24 h, 40 µM in series [4] is less than 80%. With `COn1c2ccccc2c2cc(COCc3ccc4[nH]c5ccccc5c4c3)ccc21`, the IC50 in series [1] was found to be 21.9 µM. Also, the Activity result in series [2] is “Non-toxic”. Regarding `COc1cc(Cn2c3ccccc3c3cc(CO)cc(OC)c32)cc2c1[nH]c1ccccc12`, the IC50 in series [1] is 19.3 µM. Besides, in series [2], the Activity result is recorded as “Non-toxic”. Turning to `COc1cc(Cn2c3ccccc3c3cc(C=O)cc(OC)c32)cc2c1[nH]c1ccccc12`, the IC50 in series [1] turned out to be 38.5 µM. Further, the Activity result in series [2] is “Non-toxic”.

On to `COn1c2ccccc2c2cc(COCc3ccc4c(c3)c3ccccc3n4OC)ccc21`, for which the concentration for half-maximal inhibition (IC50) in series [1] is 11.2 µM. Besides, the Activity entry in series [2] is on record as “Non-toxic”. The matching figures for `COc1cc(Cc2c(C)cc(OC)c3[nH]c4ccccc4c23)cc2c1[nH]c1ccccc12`: 18.6 µM and “Non-toxic”. With `O=c1c(O)c(-c2ccc(O)c(O)c2)oc2cc(O)cc(O)c12` [QUERCETIN], the IC50 in series [1] was 17.4 µM.
